Source: US6537803B1, “Amino acid transporters and uses” (Oregon Health Sciences University, priority 1993, dated 2003)
Where two headings read alike, the source gives them in different places. Blank lines part the entries; values can stand above or below the compound they belong to.

Key:
Type in all cases: cell-based
[1] = biological target: T1, human EAAT1 (Homo sapiens, UniProt P43003); assay: inhibition of [3H]-L-glutamate uptake in COS-7 cells expressing EAAT1; conditions: for inhibition of glutamate uptake (in words), EAAT1: COS cell culture
T1 construct: expressed in transfected cells; host or cells: COS-7 cells, pCMV5 construct, DEAE-dextran transient transfection
Source text: (§1) DNA fragments comprising the coding sequences of the novel glutamate transporter genes of the invention were excised from the POTV constructs described in Example 3 and subcloned into the mammalian expression plasmid pCMV5 (Anderson et al., 1989, J. Biol. Chem. 264: 8222-8229). These mammalian expression constructs were used for transient expression assays of glutamate transporter protein function after transfection of each of these constructs into COS-7 cells (Gluzman, 1981, Cell 23: 175-182).
(§2) Each of the pCMV5 constructs corresponding to EAAT1, EAAT2 and EAAT3 were introduced into COS-7 cells by DEAE-dextran facilitated transfection (see Sambrook et al., ibid.). Two day following transfection, the transfected cells were washed three times in phosphate-buffered saline (PBS) and then incubated with a mixture of radiolabeled amino acid ([^3H]-L-glutamate or [^3H]-D-aspartate; Dupont-NEN) and non-radiolabeled amino acid for 10 min. After incubation, the cells were washed three times with ice-cold PBS, solubilized with a solution of 0.1% sodium dodecyl sulfate (SDS) and the amount of radioactivity associated with the cells determined using standard liquid scintillation counting methods.
(§3) COS-7 cell cultures transformed with pCMVS-human glutamate transporter constructs as described in Example 4 were used to characterize the pharmacological properties of each of these transporter proteins relative to a variety of known glutamate transporter inhibitors. These assays were performed essentially as described in Example 4, with the exception that varying amounts of each of a number of known inhibitor compounds were included in the incubations.
(§4) In these experiments, uptake of 1 μM of […] was determined in the presence of the indicated amounts of each of the inhibitors.

[2] = biological target: T2, human EAAT2 (Homo sapiens, UniProt P43004); assay: inhibition of [3H]-L-glutamate uptake in COS-7 cells expressing EAAT2; conditions: for inhibition of glutamate uptake (in words), EAAT2: COS cell culture
T2 construct: expressed in transfected cells; host or cells: COS-7 cells, pCMV5 construct, DEAE-dextran transient transfection
Source text: as §1, §2, §3, §4

[3] = biological target: T3, human EAAT3 (Homo sapiens, UniProt P43005); assay: inhibition of [3H]-L-glutamate uptake in COS-7 cells expressing EAAT3; conditions: for inhibition of glutamate uptake (in words), EAAT3: COS cell culture
T3 construct: isolation of Clone GT11B containing a full-length open reading frame encoding EAAT3; expressed in transfected cells; host or cells: COS-7 cells, pCMV5 construct, DEAE-dextran transient transfection
T3 sequence (P43005 1-524): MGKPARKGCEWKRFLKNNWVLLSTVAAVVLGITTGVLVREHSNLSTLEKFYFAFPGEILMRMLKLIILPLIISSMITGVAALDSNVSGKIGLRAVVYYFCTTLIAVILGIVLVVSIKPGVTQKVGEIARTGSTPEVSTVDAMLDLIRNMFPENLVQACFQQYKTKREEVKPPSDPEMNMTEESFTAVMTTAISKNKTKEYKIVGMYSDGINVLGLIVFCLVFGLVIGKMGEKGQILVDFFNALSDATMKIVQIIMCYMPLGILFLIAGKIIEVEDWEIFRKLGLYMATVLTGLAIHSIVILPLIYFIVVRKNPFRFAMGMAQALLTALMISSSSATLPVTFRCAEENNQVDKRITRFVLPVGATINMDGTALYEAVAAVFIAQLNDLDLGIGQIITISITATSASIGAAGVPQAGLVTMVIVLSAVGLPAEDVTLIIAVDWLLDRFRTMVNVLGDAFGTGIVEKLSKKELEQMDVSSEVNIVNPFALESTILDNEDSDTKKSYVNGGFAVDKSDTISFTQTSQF
Source text: as §1, §2, §3, §4

[4] = biological target: T4, human ASCT1 neutral amino acid transporter (Homo sapiens, UniProt P43007); assay: amino acid-induced inward current in voltage-clamped ASCT1-injected Xenopus oocytes; conditions: for Imax (maximal current): L-stereoisomer, current normalized to the maximum response obtained with L-alanine, mean ± standard error; for effect on membrane current of ASCT1-injected oocytes: much higher concentrations (about 1 mM)
T4 construct: expressed in transfected cells; host or cells: Xenopus laevis oocytes injected with in vitro transcribed RNA (pOTV vector)
T4 sequence (P43007 1-532): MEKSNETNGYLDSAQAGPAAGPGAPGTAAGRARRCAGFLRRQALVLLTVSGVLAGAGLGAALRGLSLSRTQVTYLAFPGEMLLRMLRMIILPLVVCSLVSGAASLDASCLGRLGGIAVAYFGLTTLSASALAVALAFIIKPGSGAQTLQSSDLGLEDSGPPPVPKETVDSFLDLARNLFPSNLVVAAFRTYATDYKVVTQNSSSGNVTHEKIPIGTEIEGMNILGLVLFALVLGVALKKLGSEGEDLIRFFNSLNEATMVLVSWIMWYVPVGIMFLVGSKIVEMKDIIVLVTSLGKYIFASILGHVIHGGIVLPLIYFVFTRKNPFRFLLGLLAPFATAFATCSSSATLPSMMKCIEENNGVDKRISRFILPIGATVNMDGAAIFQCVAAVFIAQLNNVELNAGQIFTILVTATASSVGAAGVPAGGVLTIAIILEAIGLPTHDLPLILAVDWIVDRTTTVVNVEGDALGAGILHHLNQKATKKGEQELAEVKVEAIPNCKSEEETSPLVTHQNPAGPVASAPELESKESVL
Source text: Following the PCR, the product of the amplification reaction was purified using standard techniques (Saiki et al., 1988, Science 239: 487-491). The DNA then digested with the restriction enzymes KpnI and XbaI and then cloned into the polylinker of an oocyte transcription vector (POTV; see Wang el al., 1991, Nature 352: 729-731) that had been digested with KpnI and XbaI. Synthetic RNA was then transcribed in vitro from this clone using the method of Kavanaugh et al. (1992, J. Biol. Chem. 267: 22007-22009) employing bacteriophage T7 RNA polymerase (New England Biolabs, Beverly, Mass.). 20-50 nL of ASCT1 RNA (at a concentration of about 400 μg/mL) was injected into defolliculated stage V-VI Xenopus oocytes excised from female Xenopus laevis anesthetized by immersion in 3-aminobenzoic acid for 60 min. Excised oocytes were treated with collagenase II (Sigma Chemical Co., St. Louis, Mo.) in calcium-free Barth's saline solution [comprising 88 mM NaCl, 1 mM KCl, 2.4 mM NaHCO3, 0.82 mM MgSO4, 7.5 mM Tris-HCl (pH 7.6), 50 U/mL Nystatin (Sigma) and 0.1 mg/mL gentamycin (Sigma)] for 60 min., and then incubated overnight at 15° C. in 50% Leibowitz's L-15 media (Grand Island Biological Co. (GIBCO), Long Island, N.Y.). After overnight incubation the oocytes were mechanically defolliculated and then were injected with ASCT-1 RNA and incubated at 19° C. for 48 h (see Kim el al., 1991, Nature 352: 725-728 for further details of Xenopus oocyte preparation and microinjection).
Amino acid transport in such oocytes was assayed using [^3H] alanine, [^3H] serine or [^35S] cysteine (obtained from New England Nuclear, Boston, Mass.). Briefly, microinjected oocytes were […] at −60 mV using a Dagan TEV-200 clamp amplifier with an Axon Instruments (Foster City, Calif.) TL-1 A/D interface controlled by pCLAMP software (Axon Instruments) (see Kavanaugh et al., 1992, J. Biol. Chem. 267: 22007-22009 for a detailed review of this methodology) and continuously superfused with ND-96 buffer (consisting of 96 mM NaCl/2 mM KCl/1.8 mM CaCl2/1 mM MgCl2/5 mM HEPES, pH 7.5). For transport measurements, this solution was changed to a solution containing varying concentrations of the radiolabeled amino acids in ND-96 buffer.
More detailed analyses of ithe kinetics of amino acid influx were performed by least squares linear regression analysis of induced inward current ([I]) plotted as a function of substrate amino acid concentration ([S]), using the equation shown in the legend of Table II.

T1 sequence (P43003 whole entry): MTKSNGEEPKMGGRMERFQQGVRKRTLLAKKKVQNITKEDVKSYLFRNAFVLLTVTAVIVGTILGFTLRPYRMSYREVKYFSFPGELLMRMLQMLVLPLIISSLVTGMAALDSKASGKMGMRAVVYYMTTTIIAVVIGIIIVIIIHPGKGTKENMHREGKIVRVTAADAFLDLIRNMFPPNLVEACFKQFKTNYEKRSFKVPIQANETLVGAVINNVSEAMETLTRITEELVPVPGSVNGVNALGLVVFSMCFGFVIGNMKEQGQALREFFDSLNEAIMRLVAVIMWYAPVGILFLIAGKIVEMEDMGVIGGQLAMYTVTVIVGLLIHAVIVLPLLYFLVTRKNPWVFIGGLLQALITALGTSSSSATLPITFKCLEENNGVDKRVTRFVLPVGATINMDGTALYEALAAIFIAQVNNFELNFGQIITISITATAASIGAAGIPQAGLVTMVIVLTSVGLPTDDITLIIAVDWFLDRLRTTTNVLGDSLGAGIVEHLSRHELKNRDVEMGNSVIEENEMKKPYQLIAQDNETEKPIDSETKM
T2 sequence (P43004 whole entry): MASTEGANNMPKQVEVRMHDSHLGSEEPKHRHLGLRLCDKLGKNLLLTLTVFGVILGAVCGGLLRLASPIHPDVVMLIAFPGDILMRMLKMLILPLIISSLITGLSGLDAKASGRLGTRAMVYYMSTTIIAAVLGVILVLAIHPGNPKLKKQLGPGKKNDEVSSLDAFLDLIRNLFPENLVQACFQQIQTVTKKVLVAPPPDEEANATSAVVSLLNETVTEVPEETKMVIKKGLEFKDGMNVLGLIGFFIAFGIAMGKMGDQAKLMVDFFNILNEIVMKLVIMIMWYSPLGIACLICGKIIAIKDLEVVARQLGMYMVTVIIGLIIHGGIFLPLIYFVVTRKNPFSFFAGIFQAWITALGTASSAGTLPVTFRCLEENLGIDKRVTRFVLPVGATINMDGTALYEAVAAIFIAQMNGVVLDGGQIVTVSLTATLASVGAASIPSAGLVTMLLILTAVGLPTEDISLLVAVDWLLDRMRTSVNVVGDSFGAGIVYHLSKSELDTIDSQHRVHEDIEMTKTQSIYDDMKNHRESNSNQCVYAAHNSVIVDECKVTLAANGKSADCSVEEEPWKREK

Compound: N[C@@H](Cn1oc(=O)[nH]c1=O)C(=O)O [quisqualate]
- inhibition of glutamate uptake (in words), EAAT1 [1]: ineffective
- inhibition of glutamate uptake (in words), EAAT2 [2]: ineffective
- inhibition of glutamate uptake (in words), EAAT3 [3]: ineffective

- Imax (maximal current) [4]: 0.6 ± 0.11
Compound: CC(C)[C@H](N)C(=O)O [Valine]

- response relative to the response produced by L-alanine ([4]; stereospecificity): 12±3%
Compound: C[C@@H](N)C(=O)O [D-alanine]

Compound: CC(C)[C@H]1CN[C@H](C(=O)O)[C@H]1CC(=O)O [DHK, dihydrokainate]
- Ki [1]: > 1000 µM
- Ki [2]: 23 ± 6 µM
- Ki [3]: > 1000 µM

Compound: CN[C@H](CC(=O)O)C(=O)O [N-methyl-D-aspartate]
- inhibition of glutamate uptake (in words), EAAT1 [1]: ineffective
- inhibition of glutamate uptake (in words), EAAT2 [2]: ineffective
- inhibition of glutamate uptake (in words), EAAT3 [3]: ineffective

Compound: N[C@@H](COS(=O)(=O)O)C(=O)O [SOS, L-serine-O-sulfate]
- Ki [1]: 107 ± 8 µM
- Ki [2]: 1160 ± 275 µM
- Ki [3]: 150 ± 52 µM

Compound: N=C(N)NCCC[C@H](N)C(=O)O [arginine]
- effect on membrane current of ASCT1-injected oocytes [4]: had no effect

- inhibition of glutamate uptake (in words), EAAT1 [1]: ineffective
- inhibition of glutamate uptake (in words), EAAT2 [2]: ineffective
- inhibition of glutamate uptake (in words), EAAT3 [3]: ineffective
Compound: O=C1CC[C@@H](C(=O)O)N1 [L-pyroglutamicacid]

Compound: NCCCC[C@H](N)C(=O)O [L-lysine]
- effect on membrane current of ASCT1-injected oocytes [4]: had no effect

- effect on membrane current of ASCT1-injected oocytes [4]: had no effect
Compound: NC(=O)C[C@H](N)C(=O)O [asparagine]

- Ki ([1]; read-out: Ki, glutamate uptake inhibition constant, EAAT1): 369 ± 70 µM
- Ki ([2]; read-out: Ki, glutamate uptake inhibition constant, EAAT2): 184 ± 27 µM
- Ki ([3]; read-out: Ki, glutamate uptake inhibition constant, EAAT3): 133 ± 34 µM
Compound: N[C@@H](CC(=O)NO)C(=O)O [L-aspartate-β-hydroxymate]

- effect on membrane current of ASCT1-injected oocytes [4]: had no effect
Compound: NCC(=O)O [glycine]

- inhibition of glutamate uptake (in words), EAAT1 [1]: ineffective
- inhibition of glutamate uptake (in words), EAAT2 [2]: ineffective
- inhibition of glutamate uptake (in words), EAAT3 [3]: ineffective
Compound: N[C@@H](CSS(=O)(=O)O)C(=O)O [S-sulfo-L-cysteine]

- Imax (maximal current) [4]: 1.4 ± 0.03
Compound: C[C@@H](O)[C@H](N)C(=O)O [Threonine]

- Ki ([1]; uptake of 1 μM [3H]-L-glutamate, [S] << Km, Ki does not differ significantly from measured IC50, read-out: Ki, glutamate uptake inhibition constant, EAAT1): 297 ± 118 µM
- Ki ([2]; uptake of 1 μM [3H]-L-glutamate, [S] << Km, Ki does not differ significantly from measured IC50, read-out: Ki, glutamate uptake inhibition constant, EAAT2): 156 ± 37 µM
- Ki ([3]; uptake of 1 μM [3H]-L-glutamate, [S] << Km, Ki does not differ significantly from measured IC50, read-out: Ki, glutamate uptake inhibition constant, EAAT3): 307 ± 48 µM
Compound: NC(CC(=O)O)CC(=O)O [β-glutamate]
